From patent US11000033B2, “Ketone or oxime compound, and herbicide” (NISSAN CHEMICAL CORPORATION, priority 2014, dated 2021)

Experiments:
Assay type in all cases: in vivo
Amaranthus retroflexus [1] = assay: Test Example 5: herbicidal effect by foliage application, plastic box (symbol N); details: 320 g/ha, 3 weeks after application
Method in brief: (§1)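 Post-emergence spray; diluvial soil (sterilized), ~1.5 cm seed cover; greenhouse 25–30° C; 14-day-old plants; water-diluted emulsion at predetermined dose; visual score at 3 wk post-treatment.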

Scirpus juncoides [2] = assay: Test Example 2: herbicidal activity, application during weed generation in submerged conditions (symbol B); details: Table 23; application herbicide amount 320 g/ha; grade 0-5 by criteria of Test Example 1
Method in brief: (§2)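 Flooded-soil post-emergence test: emulsion of compound, water-diluted to target rate, applied to paddy water surface at 1–2 leaf stage of mixed-sown weeds (alluvial soil, 4 cm water, 25–30° C. greenhouse); visual rating 3 weeks after application.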

[3] = test system: Echinochloa oryzacola Vasing.; assay: Test Example 1: herbicidal activity, application before weed generation in submerged conditions (symbol A); details: application herbicide amount 320 g/ha
Method in brief: (§3)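 Mixed weed seeds sown in alluvial soil under 4 cm of water, with rice seedlings at the 2.5-leaf stage added. Same-day treatment: emulsion diluted to a set herbicide amount onto the water. Three weeks at 25–30 °C, then graded on a six-step scale.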

Cyperus difformis = assay: Test Example 3: herbicidal effect by foliage application, Wagner pot (symbol E); details: application herbicide amount 320 g/ha, Table 24
Method in brief: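 Rating at 3 weeks post-spray, by defined criteria. Treatment: emulsion diluted with water to a predetermined amount, applied evenly to foliage of 14-day-old plants raised in alluvial soil flooded 0.1–0.5 cm deep at 25–30 °C, rice co-sown.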

transplanted rice plant = assay: Test Example 1: effect on crop, application before weed generation in submerged conditions (symbol a); details: application herbicide amount 320 g/ha
Method in brief: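 Rice at 2.5 leaf stage transplanted into submerged soil (4 cm depth) sown with three weed species; herbicide applied before weed emergence.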

wheat = assay: Test Example 4: effect on crop by soil treatment (symbol e); details: application herbicide amount 320 g/ha
Method in brief: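 Plants are raised in a greenhouse (25° C. to 30° C.) from spot-sown seed, which sits under about 1.5 cm of sterilized diluvial soil in a box shared with weed species.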

Amaranthus retroflexus [4] = assay: Test Example 4: herbicidal effect by soil treatment (symbol N); details: application herbicide amount 320 g/ha
Method in brief: (§4)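 Seeds were sown in sterilized diluvial soil, covered with about 1.5 cm of soil, and the soil surface was sprayed with a water-diluted emulsion of the compound at a predetermined rate. Plants grew in a greenhouse at 25° C. to 30° C.; effects were scored visually 3 weeks after application.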

Apera spica-venti = assay: Test Example 4: herbicidal effect by soil treatment (symbol L); details: application herbicide amount 320 g/ha
Method in brief: as §4

Alopecurus myosuroides = assay: Test Example 5: herbicidal effect by foliage application, plastic box (symbol J); details: 320 g/ha, 3 weeks after application
Method in brief: as §1

Setaria viridis = assay: Test Example 4: herbicidal effect by soil treatment (symbol G); details: application herbicide amount 320 g/ha
Method in brief: as §4

[5] = test system: Echinochloa crus-galli var. crus-galli; assay: Test Example 5: herbicidal effect by foliage application, plastic box (symbol H); details: 320 g/ha, 3 weeks after application
Method in brief: as §1

Scirpus juncoides [6] = assay: Test Example 1: herbicidal activity, application before weed generation in submerged conditions (symbol B); details: application herbicide amount 320 g/ha
Method in brief: as §3

[7] = test system: Echinochloa oryzacola Vasing.; assay: Test Example 2: herbicidal activity, application during weed generation in submerged conditions (symbol A); details: Table 23; application herbicide amount 320 g/ha; grade 0-5 by criteria of Test Example 1
Method in brief: as §2

Compound	N: Amaranthus retroflexus, herbicidal effect grade (Amaranthus retroflexus [1])	Herbicidal effect grade, B: Scirpus juncoides (Scirpus juncoides [2])	A (Echinochloa oryzacola Vasing.) herbicidal effect grade [3]	E herbicidal effect grade (Cyperus difformis)	a (transplanted rice plant) effect on crop grade (transplanted rice plant)	Effect on crop grade, e: wheat (wheat)	Herbicidal effect grade, N: Amaranthus retroflexus (Amaranthus retroflexus [4])	Herbicidal effect grade, L: Apera spica-venti (Apera spica-venti)	J: Alopecurus myosuroides, herbicidal effect grade (Alopecurus myosuroides)	Herbicidal effect grade, G: Setaria viridis (Setaria viridis)	H: Echinochloa crus-galli var. crus-galli, herbicidal effect grade [5]	B (Scirpus juncoides) herbicidal effect grade (Scirpus juncoides [6])	Herbicidal effect grade, A: Echinochloa oryzacola Vasing. [7]
Cc1cc(-n2cc(Cl)cn2)cc(C)c1C1=C(O)CC(CC(=NOCC(F)(F)F)C(C)C)C1=O (centres unmarked) [9-014]	0 (Herbicidal ratio of 5% or lower (almost no effect))	0 (Herbicidal ratio of 5% or lower (almost no effect))	5 (Herbicidal ratio of 90% or more (almost completely withered))	5 (Herbicidal ratio of 90% or more (almost completely withered))	5 (Herbicidal ratio of 90% or more (almost completely withered))	0 (Herbicidal ratio of 5% or lower (almost no effect))	0 (Herbicidal ratio of 5% or lower (almost no effect))	0 (Herbicidal ratio of 5% or lower (almost no effect))	4 (Herbicidal ratio of 70% or higher and lower than 90%)	3 (Herbicidal ratio of 40% or higher and lower than 70%)	5 (Herbicidal ratio of 90% or more (almost completely withered))	4 (Herbicidal ratio of 70% or higher and lower than 90%)	2 (Herbicidal ratio of 20% or higher and lower than 40%)
CC#Cc1cc(C)c(C2=C(O)CC(CC(=NOCC(F)(F)F)C(C)C)C2=O)c(C)c1 (centres unmarked) [9-015]	0 (Herbicidal ratio of 5% or lower (almost no effect))	3 (Herbicidal ratio of 40% or higher and lower than 70%)	5 (Herbicidal ratio of 90% or more (almost completely withered))	5 (Herbicidal ratio of 90% or more (almost completely withered))	5 (Herbicidal ratio of 90% or more (almost completely withered))	3 (Herbicidal ratio of 40% or higher and lower than 70%)	0 (Herbicidal ratio of 5% or lower (almost no effect))	5 (Herbicidal ratio of 90% or more (almost completely withered))	5 (Herbicidal ratio of 90% or more (almost completely withered))	5 (Herbicidal ratio of 90% or more (almost completely withered))	5 (Herbicidal ratio of 90% or more (almost completely withered))	5 (Herbicidal ratio of 90% or more (almost completely withered))	5 (Herbicidal ratio of 90% or more (almost completely withered))
COCCON=C(C)CC1CC(O)=C(c2c(C)cc(-n3cc(Cl)cn3)cc2C)C1=O (centres unmarked) [9-016]	0 (Herbicidal ratio of 5% or lower (almost no effect))	4 (Herbicidal ratio of 70% or higher and lower than 90%)	5 (Herbicidal ratio of 90% or more (almost completely withered))	5 (Herbicidal ratio of 90% or more (almost completely withered))	5 (Herbicidal ratio of 90% or more (almost completely withered))	0 (Herbicidal ratio of 5% or lower (almost no effect))	0 (Herbicidal ratio of 5% or lower (almost no effect))	1 (Herbicidal ratio of 5% or higher and lower than 20%)	5 (Herbicidal ratio of 90% or more (almost completely withered))	5 (Herbicidal ratio of 90% or more (almost completely withered))	5 (Herbicidal ratio of 90% or more (almost completely withered))	5 (Herbicidal ratio of 90% or more (almost completely withered))	5 (Herbicidal ratio of 90% or more (almost completely withered))
COCCON=C(C)CC1CC(O)=C(c2c(C)cc(Br)cc2C)C1=O (centres unmarked) [9-017]	0 (Herbicidal ratio of 5% or lower (almost no effect))	0 (Herbicidal ratio of 5% or lower (almost no effect))	4 (Herbicidal ratio of 70% or higher and lower than 90%)	3 (Herbicidal ratio of 40% or higher and lower than 70%)	4 (Herbicidal ratio of 70% or higher and lower than 90%)	0 (Herbicidal ratio of 5% or lower (almost no effect))	0 (Herbicidal ratio of 5% or lower (almost no effect))	0 (Herbicidal ratio of 5% or lower (almost no effect))	3 (Herbicidal ratio of 40% or higher and lower than 70%)	0 (Herbicidal ratio of 5% or lower (almost no effect))	5 (Herbicidal ratio of 90% or more (almost completely withered))	2 (Herbicidal ratio of 20% or higher and lower than 40%)	1 (Herbicidal ratio of 5% or higher and lower than 20%)
COCCON=C(CC1CC(O)=C(c2c(C)cc(Br)cc2C)C1=O)C1CC1 (centres unmarked) [9-019]	0 (Herbicidal ratio of 5% or lower (almost no effect))	0 (Herbicidal ratio of 5% or lower (almost no effect))	4 (Herbicidal ratio of 70% or higher and lower than 90%)	4 (Herbicidal ratio of 70% or higher and lower than 90%)	4 (Herbicidal ratio of 70% or higher and lower than 90%)	0 (Herbicidal ratio of 5% or lower (almost no effect))	0 (Herbicidal ratio of 5% or lower (almost no effect))	0 (Herbicidal ratio of 5% or lower (almost no effect))	4 (Herbicidal ratio of 70% or higher and lower than 90%)	5 (Herbicidal ratio of 90% or more (almost completely withered))	5 (Herbicidal ratio of 90% or more (almost completely withered))	0 (Herbicidal ratio of 5% or lower (almost no effect))	3 (Herbicidal ratio of 40% or higher and lower than 70%)
